In ChEMBL document CHEMBL5465560, “Selectivity Literature for EUbOPEN Chemogenomic Library” (2024):
Changes are numbered by the printed parent chain.

How the values were obtained:
[1] = system: T1, Discoidin domain-containing receptor 2 (Homo sapiens), Q16832 [N456S]; experiment: (§1) Selectivity interaction (ProQinase) EUB0000171b DDR2
T1 sequence (whole entry): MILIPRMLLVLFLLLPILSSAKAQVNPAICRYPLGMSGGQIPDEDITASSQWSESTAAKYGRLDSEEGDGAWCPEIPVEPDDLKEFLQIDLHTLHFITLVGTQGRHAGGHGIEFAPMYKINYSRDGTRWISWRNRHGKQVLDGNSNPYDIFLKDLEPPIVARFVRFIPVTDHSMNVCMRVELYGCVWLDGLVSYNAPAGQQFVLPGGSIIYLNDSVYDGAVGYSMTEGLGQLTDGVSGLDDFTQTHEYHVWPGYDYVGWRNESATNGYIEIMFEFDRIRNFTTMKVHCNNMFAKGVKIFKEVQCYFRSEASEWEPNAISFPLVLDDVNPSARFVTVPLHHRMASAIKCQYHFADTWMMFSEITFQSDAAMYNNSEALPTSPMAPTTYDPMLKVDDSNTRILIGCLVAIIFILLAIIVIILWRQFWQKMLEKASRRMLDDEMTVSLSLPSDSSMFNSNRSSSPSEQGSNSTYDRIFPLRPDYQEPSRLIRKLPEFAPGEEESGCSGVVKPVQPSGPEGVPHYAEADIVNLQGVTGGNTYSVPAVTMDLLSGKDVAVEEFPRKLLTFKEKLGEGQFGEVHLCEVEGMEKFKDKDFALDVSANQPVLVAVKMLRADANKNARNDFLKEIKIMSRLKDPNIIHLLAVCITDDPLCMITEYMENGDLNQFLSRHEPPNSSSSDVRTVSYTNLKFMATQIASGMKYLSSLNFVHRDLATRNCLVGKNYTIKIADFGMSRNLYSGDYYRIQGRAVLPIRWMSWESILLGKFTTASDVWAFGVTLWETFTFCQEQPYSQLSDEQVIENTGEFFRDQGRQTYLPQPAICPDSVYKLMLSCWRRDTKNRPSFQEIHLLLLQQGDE

[2] = system: T2, Discoidin domain-containing receptor 2 (Homo sapiens), Q16832 [T654M]; experiment: as §1
T2 sequence (whole entry): T1 sequence (whole entry) with S456N, T654M

[3] = molecular target: T3, Dual specificity mitogen-activated protein kinase kinase 4 (Homo sapiens) (UniProt P45985); experiment: Selectivity interaction (KinomeScan (DiscoverX)) EUB0000666a MAP2K4; details: at 10 µM
T3 sequence (whole entry): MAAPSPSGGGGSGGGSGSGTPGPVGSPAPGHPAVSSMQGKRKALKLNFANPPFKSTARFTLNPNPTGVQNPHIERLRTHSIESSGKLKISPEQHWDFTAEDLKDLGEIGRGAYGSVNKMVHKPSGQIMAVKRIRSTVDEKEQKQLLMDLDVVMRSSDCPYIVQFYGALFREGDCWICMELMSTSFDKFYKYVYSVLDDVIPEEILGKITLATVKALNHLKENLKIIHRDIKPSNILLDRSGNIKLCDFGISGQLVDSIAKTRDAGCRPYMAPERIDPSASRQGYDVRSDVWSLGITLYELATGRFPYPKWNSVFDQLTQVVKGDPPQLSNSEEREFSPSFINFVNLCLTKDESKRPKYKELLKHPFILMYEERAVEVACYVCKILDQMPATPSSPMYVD

[4] = molecular target: T4, Receptor-interacting serine/threonine-protein kinase 1 (Homo sapiens) (UniProt Q13546); experiment: Selectivity interaction (Kinase panel (Eurofins)) EUB0001564a RIPK1; details: at 1 µM
T4 sequence (whole entry): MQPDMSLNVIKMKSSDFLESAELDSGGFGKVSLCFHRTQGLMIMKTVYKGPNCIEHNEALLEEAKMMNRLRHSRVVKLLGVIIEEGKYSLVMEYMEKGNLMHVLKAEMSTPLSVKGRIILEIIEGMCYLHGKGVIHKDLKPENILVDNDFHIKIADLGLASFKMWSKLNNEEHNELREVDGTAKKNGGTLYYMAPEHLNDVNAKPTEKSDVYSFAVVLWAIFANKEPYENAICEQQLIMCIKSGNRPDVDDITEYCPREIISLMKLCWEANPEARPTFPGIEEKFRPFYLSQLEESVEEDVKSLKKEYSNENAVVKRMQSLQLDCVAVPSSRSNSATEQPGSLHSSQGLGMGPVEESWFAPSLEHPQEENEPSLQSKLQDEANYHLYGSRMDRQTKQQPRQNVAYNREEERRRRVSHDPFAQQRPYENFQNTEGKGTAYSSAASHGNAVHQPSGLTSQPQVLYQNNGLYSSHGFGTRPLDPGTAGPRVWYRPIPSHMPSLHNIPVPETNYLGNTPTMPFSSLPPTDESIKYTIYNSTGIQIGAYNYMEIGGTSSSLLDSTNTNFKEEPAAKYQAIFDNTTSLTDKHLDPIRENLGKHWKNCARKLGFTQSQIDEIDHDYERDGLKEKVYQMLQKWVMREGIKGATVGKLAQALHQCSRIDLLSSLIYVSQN

## C=CC(=O)Nc1cccc(C(=O)Nc2ccc(Nc3cc(-c4[nH]c(SC)nc4C)ccn3)cc2)c1
[1]; at 1 µM
  % of control: 88%
[1]; at 5 µM
  % of control: 67%
[2]; at 1 µM
  % of control: 89%
[2]; at 5 µM
  % of control: 70%

## O=C(NOC[C@H](O)CO)c1ccc(F)c(F)c1Nc1ccc(I)cc1F
[3]
  % of control: 83%

## CC[C@@H](Nc1c(C#N)c(-c2ccc(-c3cccc(C)c3F)cc2)nc2cnccc12)C(=O)O [BAY-091]
[4]
  % of inhibition: 21.2%
